Results reported in publication PMC5618421, “Anti-Inflammatory Effects of Curvularin-Type Metabolites from a Marine-Derived Fungal Strain Penicillium sp. SF-5859 in Lipopolysaccharide-Induced RAW264.7 Macrophages” (Marine Drugs, 2017).

Assays:
[1] = tested on: NO production in LPS-treated RAW 264.7 macrophages; experiment: Inhibition of NO production (nitrite, Griess reaction) in LPS-treated RAW264.7 macrophages; assay type: cell-based; details: for inhibitory activity on LPS-induced production of NO and PGE2 (in words): LPS-stimulated RAW264.7 macrophages; for IC50: Mus musculus, RAW264.7 macrophages pre-treated 3 h with compound, then LPS (1 μg/mL) 24 h, Griess reaction
Experimental: (§1) All isolated compounds (1–9) were evaluated for their anti-inflammatory effects. […] NO is a small molecule which is an intracellular mediator produced in various immune cells. It plays a pivotal role in the physiological and pathological condition of inflammatory symptoms. PGE2 can also regulate the immune and inflammatory responses. In this study, RAW264.7 macrophages were pre-treated for 3 h in the medium containing non-toxic concentrations (Table 2) of each compound (1–9), and then LPS (1 μg/mL) was treated for 24 h. According to the LPS stimulation of RAW264.7 macrophages, production of NO and PGE2 was increased, and the effects of all compounds on the production level of NO and PGE2 were evaluated by the Griess reaction and a PGE2 kit, respectively. […] To evaluate the impact of phenol and resorcinol groups in the curvularin-type metabolites for the anti-inflammatory activity, 5-O-methyl and 5,7,-di-O-methyl derivatives of curvularin (3a and 3b, respectively), as well as 5-O-acetyl and 5,7,-di-O-acetyl derivatives of curvularin (3c and 3d, respectively), were prepared, and the structures of 3a–3d were identified by comparison the ^1H and ^13C-NMR spectroscopic data with those of curvularin (3), and confirmed by their HRESIMS. […] The position of the methoxy group in 3a was confirmed by HMBC correlation between methoxy signal at δH 3.77 (3H, s, 5-OCH3) and δC 161.8 (C-5). The NOESY cross-peaks between acetyl proton ([…]) with H-2, H-4, and H-16 of 3c were used to identify the position of the acetyl group in 3c. […] Further systematic investigations are needed to clarify the structure activity relationship associated with the modification of the aliphatic part of the molecule.
As an indicator of NO production in RAW264.7 macrophages, production of nitrite, a stable end-product of NO oxidation, was estimated. Briefly, the concentration of nitrite in the conditioned media was determined by a method based on the Griess reaction, and the details of the assay were described previously.

[2] = tested on: PGE2 production in LPS-treated RAW 264.7 macrophages; experiment: Inhibition of PGE2 production (PGE2 ELISA kit) in LPS-treated RAW264.7 macrophages; assay type: cell-based; details: Mus musculus, RAW264.7 macrophages pre-treated 3 h with compound, then LPS (1 μg/mL) 24 h
Experimental: as §1
RPMI1640, fetal bovine serum (FBS), and other tissue culture reagents were purchased from Gibco BRL Co. (Grand Island, NY, USA). All other chemicals were obtained from Sigma-Aldrich Co. (St. Louis, MO, USA). Primary antibodies (COX-2: sc-1745; iNOS: sc-650; IκB-α: sc-371; p-IκB-α: sc-8404; p50: sc-7178; p65: sc-8008, Santa Cruz Biotechnology, Dallas, TX, USA, p-ERK: #9101; ERK: #9102; p-JNK: #9251; JNK: #9252S; p-p38: #9211; p38: 9212S, Cell Signaling Technology, Danvers, MA, USA) and secondary antibodies (mouse: ap124p; goat: ap106p; rabbit: ap132p, Millipore, Billerica MA, USA). Enzyme-linked immunosorbent assay (ELISA) kits for PGE2 were purchased from R and D Systems, Inc. (Minneapolis, MN, USA).

RAW264.7 macrophages = experiment: Cell viability (MTT) cytotoxic assay; assay type: cell-based
Experimental: RAW264.7 macrophages were maintained at a density of 5 × 10^5 cells/mL in RPMI1640 medium supplemented with 10% heat-inactivated FBS, penicillin G (100 units/mL), streptomycin ([…]), and L-glutamine (2 mM), and were incubated at 37 °C in a humidified atmosphere containing 5% CO2. For determination of cell viability, cells (1 × 10^5 cells/well in 96-well plates) were incubated with 3-(4,5-dimethylthiazol-2-yl)-2,5-diphenyltetrazolium bromide (MTT) at a final concentration of 0.5 mg/mL for 3 h, and the formazan formed was dissolved in acidic 2-propanol. The optical density was measured at 540 nm with a microplate reader (BioRad, Hercules, CA, USA). The optical density of the formazan formed in control (untreated) cells was considered to represent 100% viability.

iNOS and COX-2 = tested on: iNOS and COX-2; set-up: method as in PMID 18366037, PMID 12527810; details: human alveolar epithelial A549/8 cells; through blocking activation of STAT-1α; cited from earlier work
[3] = tested on: pro-inflammatory cytokines and chemokines; set-up: method as in PMID 22767531; details: mice model of chronic induced arthritis; cited from earlier work
human iNOS promotor = tested on: human iNOS promotor; set-up: method as in PMID 18366037; details: human alveolar epithelial A549/8 cells; compared with (S)-curvularin (3); cited from earlier work
E. coli = tested on: E. coli; set-up: method as in PMID 26119337; details: growth of E. coli; cited from earlier work

| SMILES | IC50 [1] | IC50 [2] | Cytotoxicity (the maximum concentration not affecting cell viability) (RAW264.7 macrophages; RAW264.7 macrophages, MTT) | further results |
| --- | --- | --- | --- | --- |
| C[C@H]1CCC[C@@H](CC(=O)c2c(O)cc(O)cc2CC(=O)O)O1 [Compound 1, curvulone C] | > 80 µM | > 80 µM | >80 µM | inhibitory activity on LPS-induced production of NO and PGE2 (in words) [1]: appeared to lose the inhibitory activity |
| COC(=O)Cc1cc(O)cc(O)c1C(=O)C[C@H]1CCC[C@@H](C)O1 [Compound 2, curvulone B] | > 80 µM | > 80 µM | >80 µM | inhibitory activity on LPS-induced production of NO and PGE2 (in words) [1]: appeared to lose the inhibitory activity |
| CC1CCCCCC(=O)c2c(O)cc(O)cc2CC(=O)O1 (centres unmarked) [Compound 3, curvularin] |  |  |  | Cytotoxicity (the maximum concentration not affecting cell viability) (RAW264.7 macrophages; mouse): 40 µM; inducible transcription and synthesis of iNOS and COX-2 (iNOS and COX-2): inhibited inducible transcription and synthesis of iNOS and COX-2; expression of pro-inflammatory cytokines and chemokines [3]: suppressive effect |
| COc1cc(O)c2c(c1)CC(=O)O[C@@H](C)CCCCCC2=O [Compound 3a, 5-O-methylcurvularin] |  |  | >80 µM |  |
| COc1cc2c(c(OC)c1)C(=O)CCCCC[C@H](C)OC(=O)C2 [Compound 3b, 5,7-Di-O-methylcurvularin] | 60.6 ± 16.4 µM | 49.4 ± 14 µM | >80 µM |  |
| CC(=O)Oc1cc(O)c2c(c1)CC(=O)O[C@@H](C)CCCCCC2=O [Compound 3c, 5-O-acetylcurvularin] | 46.9 ± 3.7 µM | 73.7 ± 17.1 µM | >80 µM |  |
| CC(=O)Oc1cc2c(c(OC(C)=O)c1)C(=O)CCCCC[C@H](C)OC(=O)C2 [Compound 3d, 5,7-Di-O-acetylcurvularin] | 77.5 ± 9.3 µM | > 80 µM | >80 µM | inhibitory effect on the cytokine-mediated induction of the iNOS promotor (human iNOS promotor): higher inhibitory effect |
| C[C@H]1CCC[C@@H](O)CC(=O)c2c(O)cc(O)cc2CC(=O)O1 [Compound 4, (11R,15S)-11-hydroxycurvularin] | 11.5 ± 2.7 µM | 15.6 ± 5.2 µM | 40 µM | antibacterial activity (E. coli): inhibiting the growth of E. coli |
| C[C@H]1CCC[C@H](O)CC(=O)c2c(O)cc(O)cc2CC(=O)O1 [Compound 5, (11S,15S)-11-hydroxycurvularin] | 7.2 ± 1.6 µM | 14.1 ± 4 µM | 40 µM | antibacterial activity (E. coli): inhibiting the growth of E. coli |
| CO[C@@H]1CCC[C@H](C)OC(=O)Cc2cc(O)cc(O)c2C(=O)C1 [Compound 6, (11R,15S)-11-methoxycurvularin] |  |  | 20 µM |  |
| CO[C@H]1CCC[C@H](C)OC(=O)Cc2cc(O)cc(O)c2C(=O)C1 [Compound 7, (11S,15S)-11-methoxycurvularin] |  |  | 20 µM |  |
| C[C@H]1CCC/C=C\C(=O)c2c(O)cc(O)cc2CC(=O)O1 [Compound 9, (10Z,15S)-10,11-dehydrocurvularin] | 4.4 ± 0.8 µM | 6.2 ± 1.1 µM | 20 µM |  |
